Data on one substance can be found in patent US20170312205A1, “USE OF ESTERS OF N-ACYLATED DERIVATIVES OF AMINO ACIDS AND POLYOLS AS AN ANTI-AGEING AGENT FOR HUMAN SKIN” (SOCIETE D'EXPLOITATION DE PRODUITS POUR LES INDUSTRIES …, priority 2014, published 2017).

The test system of this experiment is normal human fibroblasts. Briefly: in vitro study of migration of human fibroblasts (Oris migration plates, Calcein AM labeling). It is filed as cell-based. The note with it: for mean migration distance of the cells (Dmigr): 40 hours incubation at 37° C., mitomycin C pretreated, quadruplicate; for [(Dmigr) − (Dmigr)control]/(Dmigr)control (percentage of migratory effect relative to the control): 40 hours incubation, vs FCS culture control. From the text:
The fibroblast migration test is a test commonly used in the cosmetics and pharmaceutical sector and is especially described in the international patent application published under the number WO 2010/056908 A1. It allows in vitro reproduction of the phenomenon of fibroblast migration; a decrease in the migratory capacities of the fibroblasts being reported as associated with aging of the skin (1) (4).
Normal human fibroblasts at the R5 passage were amplified in a T75 culture flask and then inoculated at 25 000 cells/well in specific culture plates. These plates are dedicated to migration (Oris™ from Platypus), integrating a central zone without initial deposition of cells (stoppers). After 96 hours of plate amplification and 2 hours before the treatment, all the wells were treated with mitomycin C (2 hours at […]), so as to stop the cell proliferation, and thus to observe only the migration phenomenon. The stoppers were removed, and the references, the products or standard medium for fibroblasts containing 2% fetal calf serum (FCS) were applied to the cells under 100 μl, and then incubated for 40 hours at 37° C. under 5% CO2. Each condition was performed in quadruplicate.
On conclusion of the incubation, the cells were labeled with Calcein AM (5 μM, 20 minutes at 37° C.), so as to visualize the viable cells by fluorescence (revelation of the cytoplasm). Photos were taken, after having inserted a black screen under the culture plates, so as to visualize only the zone where the cells were not deposited. Thus, only the cells which had migrated were photographed (×4 objective lens; with a ×0.7 reducer on the camera adapter). The mean migration distance of the cells (Dmigr) was measured with NIS-Elements-BR 3.0 (4 cells). The means and standard deviations of the distances were calculated on the quadruplicates. The percentages of migratory effect relative to the control, and also the statistics (Student test) were also calculated.

Take “Epidermal Growth Factor [Epidermal Growth Factor (EGF)]”: under “EGF 10 ng/ml”, the “mean migration distance of the cells (Dmigr)” value is on record as 203 ± 20 μm and the “[(Dmigr) − (Dmigr)control]/(Dmigr)control (percentage of migratory effect relative to the control)” value is listed as “+21%”. For the setting “EGF 50 ng/ml”, the “mean migration distance of the cells (Dmigr)” value is 212 ± 8 μm and the “[(Dmigr) − (Dmigr)control]/(Dmigr)control (percentage of migratory effect relative to the control)” value was “+26%”. Moreover, where the note is “EGF at 10 and 50 ng/ml with normal human fibroblasts, validates the model”, the “migration distance of the fibroblasts (result in words)” value was “increase in the migration distance”.
